Converted amounts (≈) assume the structure as drawn. Each block holds one compound with its values, some of them ahead of it.
Columns and labels:
[1] = in vivo; cited from earlier work
[2] = Meng, et al.; cited from earlier work
[3] = cited from earlier work
[4] = cited from earlier work; remark: listed apart in the source
[5] = Particle size, zeta potential and polydispersity index by dynamic light scattering; assay type: physicochemical
Description: Fresh NPs were re-suspended by sonication (Qsonica LLC, Newtown, Conn., USA) in deionized water, or SA coated NPs were dissolved in deionized water and the particle size, the zeta potential, and polydispersity index (PDI) was measured through dynamic light scattering (Zetasizer Nano ZS, Malvern Instruments Ltd, Worcestershire, UK) at 25° C. Samples with polydispersity index (PDI)<0.05 were considered monodispersed according to the National Institute guidelines (7).

[6] = cited from earlier work; remark: listed apart in the source
physchem = conditions: pH 7, aqueous buffer, thermodynamic from solid
Description: Sodium hydroxide was added raising the pH of the solution to 12.30. […] After the period of about 24 hours elapsed, the solution was freeze dried. The amount of DXT that dissolved into solution from each DXT composition was measured by determining the amount of DXT in the supernatant, as measured by UV spectroscopy at 230 nm after removing undissolved material by centrifugation. […] Native DXT (uncoated) dissolved into acetate buffer at the same pH was used as a control.

Compound: C[C@H](Cn1cnc2c(N)ncnc21)OCP(=O)(O)O [TFV, tenofovir]
- Oral bioavailability [1]: 25-39%
- TFV encapsulated in chitosan NPs (EE %) [2]: 5.83%
- Solubility in water [3]: 13400 µg/mL (≈ 46700 µM)
- log P [4]: −1.1

Compound: CC(=O)[O-].[Na+] [pure salt, sodium acetate]
- ZP ([5]; as worded): 0-3 mV
- Zeta potential of pure salt (ev) ([5]; pure salt): −4.87 ± 0.64 ev

Compound: O=P(O)(O)OP(=O)(O)OP(=O)(O)O [Triphosphoric acid]
- pKa (fifth listed) ([6]; fifth dissociation, printed pKa): 8.5
- pKa1 ([6]; first dissociation): 1
- pKa4 ([6]; fourth dissociation): 3.7
- pKa (second listed) ([6]; second dissociation, printed pKa): 2.2
- pKa3 ([6]; third dissociation): 2.3

- solubility (physchem): ~11.8 µg/mL (≈ 14.6 µM)
Compound: CC(=O)O[C@@]12CO[C@@H]1C[C@H](O)[C@@]1(C)C(=O)[C@H](O)C3=C(C)[C@@H](OC(=O)[C@H](O)[C@@H](NC(=O)OC(C)(C)C)c4ccccc4)C[C@@](O)([C@@H](OC(=O)c4ccccc4)[C@H]21)C3(C)C [uncoated DXT, Docetaxel, reference compound]
- pKa [6]: ~10.96

Reference: patent publication US10213447B2, “Preparation of acetate salt compositions of pharmaceutical agents” (The Curators of the University of Missouri, priority 2015, dated 2019)
